{"source": "patent US11878063B2", "about": "“Engineered ligands and uses thereof” (Children's Medical Center Corporation, priority 2019, dated 2024)", "key": {"human PTHR1": {"target": "T1, human PTHR1 (Homo sapiens, UniProt Q03431)", "T1 construct": "expressed in transfected cells", "T1 sequence (Q03431 27-593)": "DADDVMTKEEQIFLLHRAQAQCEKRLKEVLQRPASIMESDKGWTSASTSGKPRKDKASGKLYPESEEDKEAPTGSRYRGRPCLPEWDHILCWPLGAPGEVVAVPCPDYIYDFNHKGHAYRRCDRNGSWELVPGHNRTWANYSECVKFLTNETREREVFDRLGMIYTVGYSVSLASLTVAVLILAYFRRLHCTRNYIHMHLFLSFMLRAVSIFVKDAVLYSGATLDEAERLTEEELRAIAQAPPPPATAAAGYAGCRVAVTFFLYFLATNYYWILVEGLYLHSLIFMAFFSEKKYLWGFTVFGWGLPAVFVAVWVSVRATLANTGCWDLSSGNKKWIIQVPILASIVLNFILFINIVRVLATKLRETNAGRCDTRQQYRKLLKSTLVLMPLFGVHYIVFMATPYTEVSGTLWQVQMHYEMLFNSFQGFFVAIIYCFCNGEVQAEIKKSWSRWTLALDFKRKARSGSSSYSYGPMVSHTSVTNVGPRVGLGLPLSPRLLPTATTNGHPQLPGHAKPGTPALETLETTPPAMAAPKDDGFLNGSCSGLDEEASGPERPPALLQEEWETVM", "assay": "β-arrestin2-YFP recruitment in HEK293 cells transiently transfected with human PTHR1 (microscopy)", "assay_type": "cell-based", "conditions": "30 nM PTH(1-34)-TMR; 100 nM conjugate or VHH; 30 min room temperature", "protocol": "FIGS. 30A-30F: Assessment of β-arrestin recruitment. A HEK293-derived cell line stably expressing a β-arrestin2-YFP fusion^2 was transiently transfected with human PTHR1. […] (red) and the nuclei of all cells were counterstained with DAPI. […] Panels show the same field of view with signal for β-arrestin2-YFP. […] (FIG. 30E) The ligands or VHHs (and concentrations) applied to these cells are VHHPTHR (100 nM). (FIG. 30F) The ligands or VHHs (and concentrations) applied to these cells are Vehicle. Transfected cells were incubated with indicated ligands or VHHs at room temperature for 30 minutes. This solution was aspirated, and the cells were washed twice, fixed with paraformaldehyde, and imaged as described in methods. For each panel the bottom image corresponds to an expanded version of the inset marked by the rectangle in the top image."}, "Mice (CD1 female)": {"system": "Mice (CD1 female)", "assay": "Calcemic response: blood ionized calcium in mice after subcutaneous injection", "assay_type": "in vivo, mouse", "conditions": "35 nmol/kg subcutaneous", "protocol": "Animal experiments and measurement of in vivo response. Mice (CD1 female, age 11 weeks) were treated in accordance with the ethical guidelines adopted by Massachusetts General Hospital. […] Peptides and conjugates were administered at doses that allowed for differentiation between compounds with differing levels of in vivo activity^27. Statistical analyses were performed assuming Gaussian distribution of data. Mice (n=4 per compound) were injected subcutaneously with vehicle (10 mM citric acid/150 mM NaCl/0.05% Tween-80, pH 5.0) or vehicle containing PTH or conjugate at a dose of 35 nmol/kg body weight. […] Blood was withdrawn just before injection (t=0) or at times thereafter. Tail vein blood was collected and immediately analyzed. Blood Ca^2+ concentration was measured with a Siemens RapidLab 348 Ca2+/pH analyzer."}, "PTHR16E": {"target": "T2, PTHR16E (Homo sapiens, UniProt Q03431, A83I/D81R/G76A/K80A/K82Q/P78E/R79L/S71Q/S73D/S75E/T74Q)", "T2 construct": "expressed in transfected cells", "T2 sequence (Q03431 27-593 S71Q/S73D/T74Q/S75E/G76A/P78E/R79L/K80A/D81R/K82Q/A83I)": "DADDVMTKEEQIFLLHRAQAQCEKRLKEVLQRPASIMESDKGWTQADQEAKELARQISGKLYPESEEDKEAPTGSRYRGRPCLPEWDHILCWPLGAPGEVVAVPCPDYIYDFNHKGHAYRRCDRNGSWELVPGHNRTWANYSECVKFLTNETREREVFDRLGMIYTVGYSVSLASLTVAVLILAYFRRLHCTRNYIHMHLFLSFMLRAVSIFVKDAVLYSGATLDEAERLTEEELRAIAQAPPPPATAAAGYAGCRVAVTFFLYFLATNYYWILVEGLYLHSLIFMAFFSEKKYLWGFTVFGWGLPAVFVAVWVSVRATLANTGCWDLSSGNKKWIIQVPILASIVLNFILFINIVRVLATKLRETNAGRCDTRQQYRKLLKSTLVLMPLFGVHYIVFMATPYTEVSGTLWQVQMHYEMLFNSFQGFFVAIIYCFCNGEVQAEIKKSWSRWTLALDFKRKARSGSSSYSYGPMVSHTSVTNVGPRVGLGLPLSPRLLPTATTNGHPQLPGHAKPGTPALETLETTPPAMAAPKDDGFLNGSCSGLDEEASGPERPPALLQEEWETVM", "assay": "cAMP induction in HEK293 cells stably expressing PTHR16E (6E/Ubc6e epitope tag in exon 2 segment)", "assay_type": "cell-based", "conditions": "maximal cAMP response, normalized", "protocol": "Measurement of cAMP response. These assays were performed as previously described^27. Briefly, HEK-293-derived cell lines that stably express the Glosensor cAMP reporter (Promega Corp.)^30 and PTHR1, a PTHR1 variant, or PTHR2 were seeded into white sided 96 well plates (50,000 cells/well) and grown to confluency. Confluent monolayers of cells were pre-incubated with CO2 independent medium containing D-luciferin (0.5 mM) at 37° C. until a stable baseline level of luminescence was established (20 min). Varying concentrations of ligands were then added, and the time course of luminescence response was recorded using BioTek plate reader.\nData calculations. Data were processed using Microsoft Excel and GraphPad Prism 6. Data from cAMP dose-response assays were analyzed using a sigmoidal dose-response model with variable slope. Data sets were statistically compared by using Student's t test (two-tailed) assuming unequal variances for the two sets.\nThe portion of PTHR1 encoded by exon 2 is not resolved in structural studies (FIG. 12—Panel d)^13, 14, 17, is not important for ligand binding^18, and in past work has been targeted as a site for receptor modification^18, 19. A construct was generated that encodes a PTHR1 variant in which a 14-residue fragment from exon 2 was replaced with a 14-mer epitope tag from the intracellular protein UBC6e (PTHR16E, FIG. 12—Panel d)^20. A receptor construct in which a pH-sensitive green fluorescent protein variant (GFP) was inserted into the portion of the receptor encoded by exon 2 (PTHR1GFP in FIGS. 17A to 17C)^19. Another version of PTHR1 in which yellow fluorescent protein (YFP) replaces the entire extracellular domain (PTHR1YFPΔECD, FIG. 12—Panel e)^21, was also used."}}}
{"smiles": "CC[C@H](C)[C@H](NC(=O)[C@H](CCC(=O)O)NC(=O)[C@H](CO)NC(=O)[C@@H](NC(=O)[C@@H](N)CO)C(C)C)C(=O)N[C@@H](CCC(N)=O)C(=O)N[C@@H](CC(C)C)C(=O)N[C@@H](CCSC)C(=O)N[C@@H](Cc1cnc[nH]1)C(=O)N[C@@H](CC(N)=O)C(=O)N[C@@H](CC(C)C)C(=O)NCC(=O)N[C@@H](CCCCN)C(=O)N[C@@H](Cc1cnc[nH]1)C(=O)N[C@@H](CC(C)C)C(=O)N[C@@H](CC(N)=O)C(=O)N[C@@H](CO)C(=O)N[C@@H](CCSC)C(=O)N[C@@H](CCC(=O)O)C(=O)N[C@@H](CCCN=C(N)N)C(=O)N[C@H](C(=O)N[C@@H](CCC(=O)O)C(=O)N[C@@H](Cc1c[nH]c2ccccc12)C(=O)N[C@@H](CC(C)C)C(=O)N[C@@H](CCCN=C(N)N)C(=O)N[C@@H](CCCCN)C(=O)N[C@@H](CCCCN)C(=O)N[C@@H](CC(C)C)C(=O)N[C@@H](CCC(N)=O)C(=O)N[C@@H](CC(=O)O)C(=O)N[C@H](C(=O)N[C@@H](Cc1cnc[nH]1)C(=O)N[C@@H](CC(N)=O)C(=O)N[C@@H](Cc1ccccc1)C(=O)O)C(C)C)C(C)C", "note": "[PTH(1-34)]", "values": [{"measurement": "relocalization of YFP-tagged β-arrestin to puncta", "setting": "human PTHR1", "value": "effectively stimulated"}, {"measurement": "time of peak blood ionized calcium after injection", "setting": "Mice (CD1 female)", "value": "1 to 2", "unit": "h"}, {"measurement": "blood ionized calcium response", "setting": "Mice (CD1 female); n=4", "value": "strong increase"}, {"measurement": "Max (normalized ± SD), hPTHR16E", "setting": "PTHR16E", "value": "1 ± 0.0"}]}
